Test results: US20200239412A1, “NEW DERIVATES OF DHAA WITH ELECTROSTATIC TUNING” (priority 2017, published 2020)
Several values for one entry are separate records, joined by “and”; a condition that tells them apart may be missing. Equal values may be shown once. Where a name gives a salt, the structure may show the parent alone. Read-outs that look alike come from different tables or passages of the source.

Columns and labels:
[1] = target: T1, 3R Shaker Kv channel (M356R/A359R) (Drosophila melanogaster, UniProt P08510, A359R/DEL6-46/M356R); conditions: cited from earlier work
T1 sequence (P08510 other isoform, or with tags, fused parts or gaps DEL6-46/M356R/A359R): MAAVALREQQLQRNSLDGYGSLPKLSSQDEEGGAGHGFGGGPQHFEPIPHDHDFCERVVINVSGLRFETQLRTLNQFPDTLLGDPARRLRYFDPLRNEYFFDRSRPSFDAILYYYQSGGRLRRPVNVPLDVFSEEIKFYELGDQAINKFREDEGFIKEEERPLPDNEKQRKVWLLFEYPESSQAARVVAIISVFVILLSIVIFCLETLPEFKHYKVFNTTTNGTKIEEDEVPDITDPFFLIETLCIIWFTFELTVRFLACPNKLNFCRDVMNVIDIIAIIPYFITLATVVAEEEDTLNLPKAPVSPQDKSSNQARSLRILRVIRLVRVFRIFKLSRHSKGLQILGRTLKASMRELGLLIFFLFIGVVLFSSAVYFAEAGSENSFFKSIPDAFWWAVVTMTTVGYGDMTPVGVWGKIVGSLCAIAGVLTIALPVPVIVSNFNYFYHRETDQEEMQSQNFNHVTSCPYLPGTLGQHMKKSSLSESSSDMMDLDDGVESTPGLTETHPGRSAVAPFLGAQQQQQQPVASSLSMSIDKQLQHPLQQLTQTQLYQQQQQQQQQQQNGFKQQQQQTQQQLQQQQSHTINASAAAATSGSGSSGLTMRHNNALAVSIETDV

[2] = target: T1, 3R Shaker Kv channel (M356R/A359R); experiment: in vitro; assay type: cell-based; conditions: for pKa at 100 μM: Drosophila, functional pH dependence, read-out: Functional pKa (pH where half of the maximum G(V) shift was achieved); for G(V) shift: mean
Source text: (§1) Experiments were made with the Shaker H4 channel incapable of fast N-type inactivation due to a Δ6-46 deletion, referred to as the wt Shaker Kv channel. The 3R Shaker Kv channel with two additional positively charged arginines (M356R/A359R) in the extracellular end of S4, was also used.
(§2) For the Shaker channels, Bluescript II KS(+) plasmid was linearized with HindIII and synthesis of cRNA were made with the T7 mMessage mMachine kit (Ambion, Austin, Tex.). Point mutations around S4, on the Shaker Kv channel, were introduced using QuickChange Site-Directed Mutagenesis Kit (Agilent Technologies, Santa Clara, Calif.) and sequencing were used for verification.
(§3) 50 nl cRNA was injected into Xenopus laevis oocytes using a Nanoject injector (Drummond Scientific, Broomall, Pa.) and the oocytes were stored at 8° C. in a modified Barth's solution (MBS) before experiments (16° C., M-channel, 1-2 days). The MBS contained (in mM): 88 NaCl, 1 KCl, 2.4 NaHCO3, 15 HEPES, 0.33 Ca(NO3)2, 0.41 CaCl2), and 0.82 MgSO4, pH was adjusted to 7.5 by NaOH and the MBS was supplemented sodium pyruvate (2.5 mM). All animal experiments were approved by the Linkoping's local Animal Care and Use Committee.
(§4) Currents were measured 1-6 days after cRNA injection using the two-electrode voltage clamp technique (GeneClamp 500B amplifier, Axon instruments). Signals were low pass filtered at 5 kHz and digitized by a Digidata 1440A converter (Molecular Devices, Sunnyvale, Calif.). The amplifiers leak compensation was used and Clampex 10.2 software (Molecular Devices) was used to obtain data and create voltage protocols. The extracellular control solution contained (in mM): 1 KCl, 88 NaCl, 0.8 MgCl2, 0.4 CaCl2) and 15 HEPES. pH were adjusted with NaOH. Electrode pipettes were made from borosilicate glass capillaries (Harvard apparatus, Kent, UK) using a two stage electrode puller (Narishige, Tokyo, Japan) and resistance was between 0.5-2.0 MO once filled with 3 M KCl solution. In the voltage protocol for the wt and 3R Shaker channel, holding potential was set to −80 mV and steady-state currents were measured at voltages between −80 and +50 mV (wt Shaker Kv channel) or +70 mV (3R Shaker Kv channel), using 5 mV increments, 100 ms. […] Physiol. 143, 173-182 (2014). For the M-channel, holding potential was set to −100 mV, test-voltages were measured between −120 and +50 mV (10 mV increments for 2 s) and tail currents were measured at −30 mV.
(§5) Control solution was perfused to the recording chamber (0.5 ml/min) and the test solution was added manually with a syringe, in a volume large enough to replace the control solution manifold. Resin acids compounds were dissolved in DMSO (100 mM) and stored at −20° C. Just prior to experiment the compound was diluted to desired concentration in control solution. Recovery was measured after continuously perfusion of control solution, maximum 5 min. All recordings were made with the perfusion off. Experiments were carried out in room temperature (20-23° C.) and chemicals were purchased from Sigma Aldrich if not stated otherwise.
(§6) Currents were leak subtracted and steady-state currents were measured 80-86 ms after onset of the test voltages (Clampfit 10.5, Molecular Devices). K conductance, GK, was calculated using,
(§7) where IK is the steady-state current, V the absolute membrane voltage and VK the reversal potential for K ions (−80 mV), and the following Boltzmann curve was used to fit the data:
(§8) GK(V)=A/(1+exp((V1/2−V)/s)^n (2)
(§9) where A is the amplitude of the curve, V1/2 the midpoint when n=1, s the slope and n an exponent for better curve fitting, set to n=4. The voltage shift was calculated at 10% of maximal conductance in control curve.
(§10) To quantify the concentration dependence or pH dependence of the GK(V) shifts the following equation was used:
(§11) ΔVG(V)=ΔVMAX/(1+c1/2/c), (3)

[3] = target: R362Q Shaker Kv channel (Drosophila melanogaster, UniProt P08510, DEL6-46/R362Q); experiment: G(V) shift on Shaker Kv channel S4 mutant R362Q compared with wt R362; assay type: cell-based; conditions: 100 μM, pH 7.4, FIG. 9D
R362Q Shaker Kv channel, sequence (P08510 other isoform, or with tags, fused parts or gaps DEL6-46/R362Q): as the sequence (P08510 other isoform, or with tags, fused parts or gaps DEL6-46/M356R/A359R) above, with R315M, R318A, R321Q counted along it
Protocol: as §2
Currents were measured 1-6 days after cRNA injection using the two-electrode voltage clamp technique (GeneClamp 500B amplifier, Axon instruments). Signals were low pass filtered at 5 kHz and digitized by a Digidata 1440A converter (Molecular Devices, Sunnyvale, Calif.). The amplifiers leak compensation was used and Clampex 10.2 software (Molecular Devices) was used to obtain data and create voltage protocols. The extracellular control solution contained (in mM): 1 KCl, 88 NaCl, 0.8 MgCl2, 0.4 CaCl2) and 15 HEPES. pH were adjusted with NaOH. […] In the voltage protocol for the wt and 3R Shaker channel, holding potential was set to −80 mV and steady-state currents were measured at voltages between −80 and +50 mV (wt Shaker Kv channel) or +70 mV (3R Shaker Kv channel), using 5 mV increments, 100 ms. […] For the M-channel, holding potential was set to −100 mV, test-voltages were measured between −120 and +50 mV (10 mV increments for 2 s) and tail currents were measured at −30 mV. […]

[4] = target: T2, hKv7.2/Kv7.3 (M-channel) (Homo sapiens, UniProt O43525+O43526); experiment: Two-electrode voltage clamp, G(V) shift on human M-channel expressed in Xenopus laevis oocytes; assay type: cell-based
T2 construct: expressed in transfected cells; host or cells: Xenopus laevis oocytes (cRNAs mixed 1:1)
Protocol: Experiments were also made with the human hKv7.2/Kv7.3, referred to as the M-channel. cRNAs were mixed in a 1:1 molar ratio before injection into oocytes. hKv7.2 [GenBank Acc. No. NM_004518]. hKv7.3 [GenBank Acc. No NM_004519].
as §3, §4, §5
For the M channel tail currents were measured 18 ms after onset and then plotted against the test voltage. The Boltzmann curve (Eq. 2) was used to fit data and the slope was set to shared value between control and test compound. V1/2 was used to calculate the GK(V) shift.
as §10, §11
where ΔVG(v) is the voltage shift, ΔVMAX is the amplitude of the curve, c the concentration, c1/2 the concentration at which half maximum response occur. For compounds with no pH dependence the data was fitted with a horizontal line, with the slope set to 0.

[5] = target: wt Shaker Kv channel (Shaker H4, Δ6-46) (Drosophila melanogaster, UniProt P08510, DEL6-46); experiment: Two-electrode voltage clamp, G(V) shift on wt Shaker Kv channel expressed in Xenopus laevis oocytes; assay type: cell-based
wt Shaker Kv channel (Shaker H4, Δ6-46), sequence (P08510 other isoform, or with tags, fused parts or gaps DEL6-46): as the sequence (P08510 other isoform, or with tags, fused parts or gaps DEL6-46/M356R/A359R) above, with R315M, R318A counted along it
Source text: as §1, §2, §3, §4, §5, §6, §7, §8, §9, §10, §11

[6] = pH 7.4, concentration-response of G(V) shift, read-out: c1/2 (half-maximal concentration)

CC(C)c1ccc2c(c1)CC[C@H]1[C@](C)(C(=O)O)CCC[C@]21C [DHAA, dehydroabietic acid]
EC50 ([1]; pH 7.4, data from Ottosson et al. Sci. Rep. 5, 13278 (2015), read-out: c1/2 (half-maximal concentration)): 98 µM
pKa at 100 μM [2]: 7.2

C[C@@]1(C(=O)O)CCC[C@]2(C)c3cc(Cl)c(Cl)c(Cl)c3CCC12 (some centres unmarked) [Wu50, reference compound]
EC50 ([1]; read-out: c1/2 (half-maximal concentration), pH 7.4, data from Ottosson et al. Sci. Rep. 5, 13278 (2015)): 37 µM and 36 µM
Increase of affinity compared to DHAA (factor) ([2]; pH 7.4): 2.7
Increase of amplitude/efficacy compared to DHAA (factor) ([2]; pH 7.4): 1.7

CC(C)c1ccc2c(c1)CC[C@H]1[C@](C)(COS(=O)(=O)O)CCC[C@]21C [Wu161, ((1R,4aS,10aR)-7-isopropyl-1,4a-dimethyl-1,2,3,4,4a,9,10,10a-octahydrophenanthren-1-yl)methyl Hydrogen Sulfate]
Effect on R362Q compared with wt R362 [3]: about the same effects
EC50 ([4]; concentration-response of G(V) shift, read-out: c1/2 (half-maximal concentration)): 41.8 µM and 42 µM
EC50 [5, 6]: 44 µM
EC50 [2, 6]: 36 µM and 37 µM

CC(C)c1ccc2c(c1)CCC1[C@](C)(CCC(=O)O)CCC[C@]21C (stereo partly drawn) [Wu179, 3-((1S,4aS)-7-isopropyl-1,4a-dimethyl-1,2,3,4,4a,9,10,10a-octahydrophenanthren-1-yl)propanoic Acid]
G(V) shift ([4]; pH 7.4, 100 μM, mean): −6.68 mV
G(V) shift ([5]; pH 10, 100 μM, mean): −3.83 mV
pKa at 100 μM [2]: 7.5
G(V) shift ([2]; pH 5.5, 100 μM): 2.80 mV
G(V) shift ([2]; pH 6.5, 100 μM): −3.23 mV
G(V) shift ([2]; pH 7.4, 100 μM): −10.43 mV
G(V) shift ([2]; pH 9, 100 μM): −16.63 mV
G(V) shift ([2]; pH 10, 100 μM): −22.83 mV
